Patent US6706663B2, “Herbicidal 3-heterocyclic substituted benzisothiazole and benzisoxazole compounds” (Wyeth, priority 2000, dated 2004)

Legend:
ORYSAT (Rice, Tebonnet) [1] = assay: Flooded paddy, post-transplant rice tolerance; type: in vivo, Oryza sativa, (L.) Tebonnet; settings: in vivo
Description: (§1) Results of herbicide evaluation are expressed on a rating scale (0-9). The scale is based upon a visual observation of plant stand, vigor, malformation, size, chlorosis and overall plant appearance as compared with a control.
The tolerance of transplanted rice to post-transplanted herbicide application is determined as follows: two ten-day-old rice seedlings (cv. Tebonnet) are transplanted into silt loam soil in 32 oz. plastic containers with a diameter of 10.5 cm and no drainage holes. After transplanting, the containers are flooded and the water level is maintained at 1.5 to 3 cm above the soil surface. […] The treated containers are placed on greenhouse benches, watered such that the water level is maintained as stated above, and cared for in accordance with conventional greenhouse procedures.

[2] = system: ECHORC (Echinochloa oryzoides); assay: Flooded paddy, preemergence weed control; type: in vivo, Echinochloa oryzoides (Ard.) Fritsch.; settings: rated 3-4 weeks after treatment, 0-9 rating scale
Description: as §1
(§2) Preemergence herbicidal activity under flooded paddy conditions is determined as follows: plant seeds or propagating organs are planted in the top 0.5 cm of silt loam soil in 32 oz. plastic containers with a diameter of 10.5 cm and no drainage holes. Water is added to these containers and maintained at 1.5 to 3 cm above the soil surface for the duration of the experiment. […] The treated containers are placed on greenhouse benches and cared for in accordance with conventional greenhouse procedures.

ORYSAT (Rice, Tebonnet) [3] = assay: Postemergence herbicidal evaluation; type: in vivo, Oryza sativa, (L.) Tebonnet; settings: postemergence
Description: (§3) In the tests, seedling plants are grown in jiffy flats for about two weeks. […] After spraying, the plants are placed on greenhouse benches and are cared for in accordance with conventional greenhouse procedures. From four to five weeks after treatment, the seedling plants are examined and rated according to the rating system set forth below. Where more than one test is involved for a given compound, the data are averaged.
as §1

[4] = system: AMBEL (Ambrosia artemisifolia); assay: Postemergence herbicidal evaluation; type: in vivo, L.; settings: postemergence
Description: as §3, §1

[5] = system: CASOB (Cassia obtusifolia); assay: Postemergence herbicidal evaluation; type: in vivo, L.; settings: postemergence
Description: as §3, §1

[6] = system: CHEAL (Chenopodium album); assay: Postemergence herbicidal evaluation; type: in vivo, L.; settings: postemergence
Description: as §3, §1

[7] = system: ABUTH (Abutilon theophrasti); assay: Postemergence herbicidal evaluation; type: in vivo, Medic.; settings: postemergence
Description: as §3, §1

ORYSAT (Rice, Tebonnet) [8] = assay: Preemergence herbicidal evaluation; type: in vivo, Oryza sativa, (L.) Tebonnet; settings: rated 4-5 weeks after treatment
From the text: as §1
(§4) The preemergence herbicidal activity of the test compounds of the present invention is exemplified by the following tests in which the seeds of a variety of monocotyledonous and dicotyledonous plants are separately mixed with potting soil and planted on top of approximately one inch of soil in separate pint cups. […] The treated cups are then placed on greenhouse benches, watered and cared for in accordance with conventional greenhouse procedures. From four to five weeks after treatment, the tests are terminated and each cup is examined and rated according to the rating system provided in Example 87. The plant species used and the compounds evaluated are the same as those shown in Example 87.

[9] = system: ABUTH (Abutilon theophrasti); assay: Preemergence herbicidal evaluation; type: in vivo, Medic.; settings: rated 4-5 weeks after treatment
From the text: as §1, §4

ZEAMX (Corn, Field) [10] = assay: Postemergence herbicidal evaluation; type: in vivo, Zea mays, L.; settings: postemergence
Description: as §3, §1

SETVI (Setaria viridis) [11] = assay: Postemergence herbicidal evaluation; type: in vivo, (L.) Beau; settings: postemergence
Description: In the tests, seedling plants are grown in jiffy flats for about two weeks. The test compounds are dispersed in 50/50 acetone/water mixtures containing 0.5% TWEEN® 20, a polyoxyethylene sorbitan monolaurate surfactant of Atlas Chemical Industries, in sufficient quantities to provide the equivalent of about 0.0040 kg to 1.000 kg per hectare of active compound when applied to the plants through a spray nozzle operating at 40 psi for a predetermined time. After spraying, the plants are placed on greenhouse benches and are cared for in accordance with conventional greenhouse procedures. From four to five weeks after treatment, the seedling plants are examined and rated according to the rating system set forth below. Where more than one test is involved for a given compound, the data are averaged.
as §1

[12] = system: IPOHE (Ipomoea hederacea); assay: Preemergence herbicidal evaluation; type: in vivo, (L.) Jacq.; settings: rated 4-5 weeks after treatment
From the text: as §1, §4

[13] = system: GLXMAW (Soybean, Williams); assay: Postemergence herbicidal evaluation; type: in vivo, Glycine max, (L.) Merr. cv Williams; settings: postemergence
Description: as §3, §1

ZEAMX (Corn, Field) [14] = assay: Preemergence herbicidal evaluation; type: in vivo, Zea mays, L.; settings: rated 4-5 weeks after treatment
From the text: as §1, §4

[15] = system: TRZAWR (Wheat, Winter, cv Riband); assay: Preemergence herbicidal evaluation; type: in vivo, Triticum aestivum; settings: rated 4-5 weeks after treatment
From the text: as §1, §4

[16] = system: TRZAWR (Wheat, Winter, cv Riband); assay: Postemergence herbicidal evaluation; type: in vivo, Triticum aestivum; settings: postemergence
Description: as §3, §1

[17] = system: IPOHE (Ipomoea hederacea); assay: Postemergence herbicidal evaluation; type: in vivo, (L.) Jacq.; settings: postemergence
Description: as §3, §1

[18] = system: AMBEL (Ambrosia artemisifolia); assay: Preemergence herbicidal evaluation; type: in vivo, L.; settings: rated 4-5 weeks after treatment
From the text: as §1, §4

[19] = system: CASOB (Cassia obtusifolia); assay: Preemergence herbicidal evaluation; type: in vivo, L.; settings: rated 4-5 weeks after treatment
From the text: as §1, §4

[20] = system: CHEAL (Chenopodium album); assay: Preemergence herbicidal evaluation; type: in vivo, L.; settings: rated 4-5 weeks after treatment
From the text: as §1, §4

GALAP (Galium aparine) [21] = assay: Postemergence herbicidal evaluation; type: in vivo; settings: postemergence
Description: as §3, §1

[22] = system: GLXMAW (Soybean, Williams); assay: Preemergence herbicidal evaluation; type: in vivo, Glycine max, (L.) Merr. cv Williams; settings: rated 4-5 weeks after treatment
From the text: as §1, §4

SETVI (Setaria viridis) [23] = assay: Preemergence herbicidal evaluation; type: in vivo, (L.) Beau; settings: rated 4-5 weeks after treatment
From the text: as §1, §4

[24] = system: ECHCG (Echinochloa crus-galli); assay: Preemergence herbicidal evaluation; type: in vivo, (L.) Beau; settings: rated 4-5 weeks after treatment
From the text: as §1, §4

[25] = system: SAGPY (Sagittaria pygmaea); assay: Flooded paddy, preemergence weed control; type: in vivo, L.; settings: rated 3-4 weeks after treatment, 0-9 rating scale
Description: as §1, §2

[26] = system: ECHCG (Echinochloa crus-galli); assay: Postemergence herbicidal evaluation; type: in vivo, (L.) Beau; settings: postemergence
Description: as §3, §1

CYPIR (Cyperus iria) = assay: Flooded paddy, preemergence weed control; type: in vivo; settings: rated 3-4 weeks after treatment, 0-9 rating scale
Description: as §1, §2

GALAP (Galium aparine) [27] = assay: Preemergence herbicidal evaluation; type: in vivo; settings: rated 4-5 weeks after treatment
From the text: as §1, §4

[28] = system: MOOVA (Monochoria vaginalis); assay: Flooded paddy, preemergence weed control; type: in vivo, Presl.; settings: rated 3-4 weeks after treatment, 0-9 rating scale
Description: as §1, §2

Cn1c(C(F)(F)F)cc(=O)n(-c2ccc3c(c2)C(c2cccc[n+]2[O-])=NS3(=O)=O)c1=O [Example 15]
herbicidal rating, ORYSAT (rice tolerance) (ORYSAT (Rice, Tebonnet) [1]): 0.0

3-[3-[5-(bromomethyl)-5-hydroxy-m-diaxan-2-yl]-1,2-benzisothiazol-5-yl]-1-methyl-6-(trifluoromethyl)uracil [Compound 69]
herbicidal rating, ECHORC ([2]; rate 0.0080 kg/ha): 0.0
herbicidal rating, ECHORC ([2]; rate 0.0320 kg/ha): 0.0
herbicidal rating, ECHORC ([2]; rate 0.1250 kg/ha): 3.0
ORYSAT herbicidal rating (ORYSAT (Rice, Tebonnet) [3]; rate 0.0320 kg/ha): 4.0
ORYSAT herbicidal rating (ORYSAT (Rice, Tebonnet) [3]; rate 0.0620 kg/ha): 4.0
AMBEL herbicidal rating ([4]; rate 0.0320 kg/ha): 9.0
AMBEL herbicidal rating ([4]; rate 0.0620 kg/ha): 9.0
CASOB herbicidal rating ([5]; rate 0.0320 kg/ha): 0.0
CASOB herbicidal rating ([5]; rate 0.0620 kg/ha): 2.0
CHEAL herbicidal rating ([6]; rate 0.0320 kg/ha): 9.0
CHEAL herbicidal rating ([6]; rate 0.0620 kg/ha): 7.0
ABUTH herbicidal rating ([7]; rate 0.0320 kg/ha): 9.0
ABUTH herbicidal rating ([7]; rate 0.0620 kg/ha): 9.0
Preemergence herbicidal rating ORYSAT (ORYSAT (Rice, Tebonnet) [8]; Rate 0.0620 kg/ha): 1.0
Preemergence herbicidal rating ORYSAT (ORYSAT (Rice, Tebonnet) [8]; Rate 0.1250 kg/ha): 2.0
Preemergence herbicidal rating ORYSAT (ORYSAT (Rice, Tebonnet) [8]; Rate 0.2500 kg/ha): 5.0
Preemergence herbicidal rating ABUTH ([9]; Rate 0.0620 kg/ha): 9.0
Preemergence herbicidal rating ABUTH ([9]; Rate 0.1250 kg/ha): 9.0
Preemergence herbicidal rating ABUTH ([9]; Rate 0.2500 kg/ha): 9.0
ZEAMX herbicidal rating (ZEAMX (Corn, Field) [10]; rate 0.0320 kg/ha): 5.5
ZEAMX herbicidal rating (ZEAMX (Corn, Field) [10]; rate 0.0620 kg/ha): 5.5
SETVI herbicidal rating (SETVI (Setaria viridis) [11]; rate 0.0320 kg/ha): 2.0
SETVI herbicidal rating (SETVI (Setaria viridis) [11]; rate 0.0620 kg/ha): 4.0
Preemergence herbicidal rating IPOHE ([12]; Rate 0.0620 kg/ha): 1.0
Preemergence herbicidal rating IPOHE ([12]; Rate 0.1250 kg/ha): 9.0
Preemergence herbicidal rating IPOHE ([12]; Rate 0.2500 kg/ha): 9.0
GLXMAW herbicidal rating ([13]; rate 0.0320 kg/ha): 7.5
GLXMAW herbicidal rating ([13]; rate 0.0620 kg/ha): 7.0
Preemergence herbicidal rating ZEAMX (ZEAMX (Corn, Field) [14]; Rate 0.0620 kg/ha): 1.0
Preemergence herbicidal rating ZEAMX (ZEAMX (Corn, Field) [14]; Rate 0.1250 kg/ha): 3.0
Preemergence herbicidal rating ZEAMX (ZEAMX (Corn, Field) [14]; Rate 0.2500 kg/ha): 7.0
Preemergence herbicidal rating TRZAWR ([15]; Rate 0.0620 kg/ha): 1.0
Preemergence herbicidal rating TRZAWR ([15]; Rate 0.1250 kg/ha): 2.0
Preemergence herbicidal rating TRZAWR ([15]; Rate 0.2500 kg/ha): 5.0
TRZAWR herbicidal rating ([16]; rate 0.0320 kg/ha): 4.0
TRZAWR herbicidal rating ([16]; rate 0.0620 kg/ha): 4.5
IPOHE herbicidal rating ([17]; rate 0.0320 kg/ha): 9.0
IPOHE herbicidal rating ([17]; rate 0.0620 kg/ha): 9.0
Preemergence herbicidal rating AMBEL ([18]; Rate 0.0620 kg/ha): 7.0
Preemergence herbicidal rating AMBEL ([18]; Rate 0.1250 kg/ha): 9.0
Preemergence herbicidal rating AMBEL ([18]; Rate 0.2500 kg/ha): 8.0
Preemergence herbicidal rating CASOB ([19]; Rate 0.0620 kg/ha): 0.0
Preemergence herbicidal rating CASOB ([19]; Rate 0.1250 kg/ha): 1.0
Preemergence herbicidal rating CASOB ([19]; Rate 0.2500 kg/ha): 6.0
Preemergence herbicidal rating CHEAL ([20]; Rate 0.0620 kg/ha): 9.0
Preemergence herbicidal rating CHEAL ([20]; Rate 0.1250 kg/ha): 9.0
Preemergence herbicidal rating CHEAL ([20]; Rate 0.2500 kg/ha): 9.0
GALAP herbicidal rating (GALAP (Galium aparine) [21]; rate 0.0320 kg/ha): 4.0
GALAP herbicidal rating (GALAP (Galium aparine) [21]; rate 0.0620 kg/ha): 6.0
Preemergence herbicidal rating GLXMAW ([22]; Rate 0.0620 kg/ha): 2.0
Preemergence herbicidal rating GLXMAW ([22]; Rate 0.1250 kg/ha): 9.0
Preemergence herbicidal rating GLXMAW ([22]; Rate 0.2500 kg/ha): 9.0
Preemergence herbicidal rating SETVI (SETVI (Setaria viridis) [23]; Rate 0.0620 kg/ha): 7.0
Preemergence herbicidal rating SETVI (SETVI (Setaria viridis) [23]; Rate 0.1250 kg/ha): 9.0
Preemergence herbicidal rating SETVI (SETVI (Setaria viridis) [23]; Rate 0.2500 kg/ha): 9.0
Preemergence herbicidal rating ECHCG ([24]; Rate 0.0620 kg/ha): 4.0
Preemergence herbicidal rating ECHCG ([24]; Rate 0.1250 kg/ha): 8.0
Preemergence herbicidal rating ECHCG ([24]; Rate 0.2500 kg/ha): 8.0
herbicidal rating, SAGPY ([25]; rate 0.0080 kg/ha): 0.0
herbicidal rating, SAGPY ([25]; rate 0.0320 kg/ha): 0.0
herbicidal rating, SAGPY ([25]; rate 0.1250 kg/ha): 3.0
ECHCG herbicidal rating ([26]; rate 0.0320 kg/ha): 2.0
ECHCG herbicidal rating ([26]; rate 0.0620 kg/ha): 3.0
herbicidal rating, CYPIR (CYPIR (Cyperus iria); rate 0.0080 kg/ha): 0.0
herbicidal rating, CYPIR (CYPIR (Cyperus iria); rate 0.0320 kg/ha): 0.0
herbicidal rating, CYPIR (CYPIR (Cyperus iria); rate 0.1250 kg/ha): 3.0
Preemergence herbicidal rating GALAP (GALAP (Galium aparine) [27]; Rate 0.0620 kg/ha): 7.0
Preemergence herbicidal rating GALAP (GALAP (Galium aparine) [27]; Rate 0.1250 kg/ha): 9.0
Preemergence herbicidal rating GALAP (GALAP (Galium aparine) [27]; Rate 0.2500 kg/ha): 9.0
herbicidal rating, MOOVA ([28]; rate 0.0080 kg/ha): 0.0
herbicidal rating, MOOVA ([28]; rate 0.0320 kg/ha): 0.0
herbicidal rating, MOOVA ([28]; rate 0.1250 kg/ha): 3.0
